Test results taken from PubChem BioAssay AID248 (DTP/NCI, 2004).
Toxic doses and inconclusive results are not listed. No stated cut-off is given here; in the data, active means T/C of 150% or more; inactive means T/C below 125%.

System: L1210 leukemia ip in BDF1 mice, survival T/C
Assay: NCI In Vivo Anticancer Drug Screen. Data for tumor model L1210 Leukemia (intraperitoneal) in B6D2F1 (BDF1) mice
Conditions: endpoint: mean survival time, higher = longer survival
How it was run: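 Ratio derived from survival: compound-dosed mice over vehicle-dosed mice, all bearing a transplantable tumor.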

[1] = dose: 100.0 mg/kg/injection, schedule: Q01DX009 (ip), vehicle: Klucel (hydroxypropylcellulose) (HPC)
[2] = dose: 100.0 mg/kg/injection, schedule: Q04DX003 (ip), vehicle: Klucel (hydroxypropylcellulose) (HPC)
[3] = dose: 200.0 mg/kg/injection, schedule: Q01DX009 (ip), vehicle: Klucel (hydroxypropylcellulose) (HPC)
[4] = dose: 200.0 mg/kg/injection, schedule: Q04DX003 (ip), vehicle: Klucel (hydroxypropylcellulose) (HPC)
[5] = dose: 400.0 mg/kg/injection, schedule: Q01DX009 (ip), vehicle: Klucel (hydroxypropylcellulose) (HPC)
[6] = dose: 400.0 mg/kg/injection, schedule: Q04DX003 (ip), vehicle: Klucel (hydroxypropylcellulose) (HPC)
[7] = dose: 25.0 mg/kg/injection, schedule: Q01DX009 (ip), vehicle: saline with Tween-80
[8] = dose: 25.0 mg/kg/injection, schedule: Q04DX003 (ip), vehicle: saline with Tween-80
[9] = dose: 50.0 mg/kg/injection, schedule: Q01DX009 (ip), vehicle: saline with Tween-80
[10] = dose: 50.0 mg/kg/injection, schedule: Q04DX003 (ip), vehicle: saline with Tween-80
[11] = dose: 100.0 mg/kg/injection, schedule: Q01DX009 (ip), vehicle: saline with Tween-80
[12] = dose: 100.0 mg/kg/injection, schedule: Q04DX003 (ip), vehicle: saline with Tween-80
[13] = dose: 50.0 mg/kg/injection, schedule: Q01DX009 (ip), vehicle: Klucel (hydroxypropylcellulose) (HPC)
[14] = dose: 100.0 mg/kg/injection, schedule: Q04DX003 (ip), vehicle: saline
[15] = dose: 200.0 mg/kg/injection, schedule: Q04DX003 (ip), vehicle: saline
[16] = dose: 400.0 mg/kg/injection, schedule: Q04DX003 (ip), vehicle: saline
[17] = dose: 100.0 mg/kg/injection, schedule: Q04DX002 (ip), vehicle: Klucel (hydroxypropylcellulose) (HPC)
[18] = dose: 200.0 mg/kg/injection, schedule: Q04DX002 (ip), vehicle: Klucel (hydroxypropylcellulose) (HPC)
[19] = dose: 400.0 mg/kg/injection, schedule: Q04DX002 (ip), vehicle: Klucel (hydroxypropylcellulose) (HPC)
[20] = dose: 100.0 mg/kg/injection, schedule: Q01DX001 (ip), vehicle: Klucel (hydroxypropylcellulose) (HPC)
[21] = dose: 200.0 mg/kg/injection, schedule: Q01DX001 (ip), vehicle: Klucel (hydroxypropylcellulose) (HPC)
[22] = dose: 400.0 mg/kg/injection, schedule: Q01DX001 (ip), vehicle: Klucel (hydroxypropylcellulose) (HPC)
[23] = dose: 100.0 mg/kg/injection, schedule: Q01DX001 (ip), vehicle: carboxymethylcellulose (CMC)
[24] = dose: 200.0 mg/kg/injection, schedule: Q01DX001 (ip), vehicle: carboxymethylcellulose (CMC)
[25] = dose: 400.0 mg/kg/injection, schedule: Q01DX001 (ip), vehicle: carboxymethylcellulose (CMC)

Measured: T/C

Cc1nn(O)ccc1=N
inactive: dose: 56.25 mg/kg/injection, schedule: Q04DX002 (ip), vehicle: saline 104 % of control | dose: 112.5 mg/kg/injection, schedule: Q04DX002 (ip), vehicle: saline 96 % of control | dose: 225.0 mg/kg/injection, schedule: Q04DX002 (ip), vehicle: saline 101 % of control

O=C(NCCCl)NC1CCCCCCCCCCC1
inactive: [1] 98 % of control | [2] 100 % of control | [3] 97 % of control | [4] 102 % of control | [5] 89 % of control | [6] 102 % of control

NC1CCc2ccccc2C(O)C1c1ccccc1 (configuration not stated)
inactive: [7] 97 % of control | [8] 107 % of control | [9] 105 % of control | [10] 104 % of control | [11] 100 % of control | [12] 102 % of control

CN(C)N=Nc1ccc2c(c1)C(=O)NC2=O
inactive: [12] 96 % of control | dose: 200.0 mg/kg/injection, schedule: Q04DX003 (ip), vehicle: saline with Tween-80 99 % of control | dose: 400.0 mg/kg/injection, schedule: Q04DX003 (ip), vehicle: saline with Tween-80 99 % of control

Nc1ccc(Nc2ccncc2)cc1
inactive: [13] 98 % of control | [1] 97 % of control | [2] 93 % of control | [3] 98 % of control | [4] 95 % of control

Cc1cccc(SC(=O)Nc2cc([N+](=O)[O-])ccc2Cl)c1
inactive: [1] 92 % of control | [3] 98 % of control | [5] 88 % of control

O=c1cc(CS)[nH]c(=O)[nH]1
inactive: [14] 98 % of control | [15] 101 % of control | [16] 98 % of control

N#CSCCN1C(=O)C2C3CCC(O3)C2C1=O (configuration not stated)
inactive: dose: 6.25 mg/kg/injection, schedule: Q04DX002 (ip), vehicle: saline with Tween-80 94 % of control | dose: 12.5 mg/kg/injection, schedule: Q04DX002 (ip), vehicle: saline with Tween-80 97 % of control

Cc1cccc(NC(=O)Nc2cccc(Cl)c2Cl)n1
inactive: [1] 92 % of control | [17] 89 % of control | [3] 92 % of control | [18] 92 % of control | [19] 103 % of control

Cc1nccc2ccsc12
inactive: dose: 75.0 mg/kg/injection, schedule: Q01DX001 (ip), vehicle: other 105 % of control | dose: 150.0 mg/kg/injection, schedule: Q01DX001 (ip), vehicle: other 102 % of control

O=P(c1ccccc1)(N1CCCC1)N1CCCC1
inactive: [14] 95 % of control | [15] 92 % of control

CC(=O)C1CCC2C3CC=C4CC(O)C=CC4(C)C3CCC12C (configuration not stated)
inactive: [2] 92 % of control | [4] 96 % of control | [6] 92 % of control

O=CC(NC(=O)c1ccccc1)C(O)C(O)C(O)CO (configuration not stated)
inactive: [20] 98 % of control | [21] 105 % of control | [22] 105 % of control

CC(=O)c1cc(C)c(C)cc1C
inactive: [23] 100 % of control | [24] 94 % of control | [25] 97 % of control

CCOC(=O)Nc1ccc(OC)cc1
inactive: [1] 96 % of control | [2] 103 % of control | [3] 98 % of control | [4] 97 % of control | [5] 93 % of control | [6] 98 % of control

COC(=O)c1cc(NC(=O)Nc2cc(C(F)(F)F)ccc2Cl)cc(C(=O)OC)c1
inactive: [17] 112 % of control | [18] 105 % of control | [19] 105 % of control

COc1cc2c(cc1Cl)nc1c(=O)[nH]c(=O)nc-1n2CCN1CCCC1
inactive: dose: 8.7 mg/kg/injection, schedule: Q01DX Z (ip), vehicle: methylcellulose (MC) 97 % of control | dose: 17.5 mg/kg/injection, schedule: Q01DX Z (ip), vehicle: methylcellulose (MC) 94 % of control | dose: 70.0 mg/kg/injection, schedule: Q01DX Z (ip), vehicle: methylcellulose (MC) 114 % of control

COc1ccc(F)cc1CCl
inactive: [17] 98 % of control | [18] 98 % of control | [19] 86 % of control

CCOC(=O)CC(=O)c1ccc(OC)cc1
inactive: [20] 101 % of control | [21] 106 % of control | [22] 107 % of control

Nc1cc(S(N)(=O)=O)ccc1Br
inactive: dose: 100.0 mg/kg/injection, schedule: Q04DX003 (ip), vehicle: water 95 % of control | dose: 200.0 mg/kg/injection, schedule: Q04DX003 (ip), vehicle: water 97 % of control | dose: 400.0 mg/kg/injection, schedule: Q04DX003 (ip), vehicle: water 92 % of control

CC(=O)NCCOc1ccc(N)cc1Cl
inactive: [14] 94 % of control | [15] 92 % of control | [16] 91 % of control

CC(=O)OCc1ccc(OC(C)=O)cn1
inactive: [23] 100 % of control | [24] 103 % of control | [25] 94 % of control

CCc1ccc(N)cc1
inactive: dose: 10.0 mg/kg/injection, schedule: Q01DX001 (ip), vehicle: saline 102 % of control | dose: 20.0 mg/kg/injection, schedule: Q01DX001 (ip), vehicle: saline 102 % of control | dose: 40.0 mg/kg/injection, schedule: Q01DX001 (ip), vehicle: saline 111 % of control

Clc1ccc2nnnn2n1
inactive: dose: 12.5 mg/kg/injection, schedule: Q01DX009 (ip), vehicle: saline with Tween-80 97 % of control | [7] 100 % of control | [9] 110 % of control | dose: 62.5 mg/kg/injection, schedule: Q04DX003 (ip), vehicle: saline 109 % of control | [17] 115 % of control | dose: 125.0 mg/kg/injection, schedule: Q04DX003 (ip), vehicle: saline 109 % of control | [18] 115 % of control | [19] 112 % of control

CNc1ncnc2c1cnn2C
inactive: dose: 5.0 mg/kg/injection, schedule: Q01DX015 (ip), vehicle: carboxymethylcellulose (CMC) 88 % of control | dose: 10.0 mg/kg/injection, schedule: Q01DX015 (ip), vehicle: carboxymethylcellulose (CMC) 97 % of control | dose: 20.0 mg/kg/injection, schedule: Q01DX015 (ip), vehicle: carboxymethylcellulose (CMC) 100 % of control | dose: 40.0 mg/kg/injection, schedule: Q01DX015 (ip), vehicle: carboxymethylcellulose (CMC) 93 % of control | dose: 80.0 mg/kg/injection, schedule: Q01DX015 (ip), vehicle: carboxymethylcellulose (CMC) 105 % of control | [23] 101 % of control | [24] 103 % of control | [25] 106 % of control

O=[N+]([O-])c1ccc(O)c(N=Cc2ccccn2)c1
inactive: dose: 100.0 mg/kg/injection, schedule: Q01DX001 (ip), vehicle: saline 90 % of control | dose: 200.0 mg/kg/injection, schedule: Q01DX001 (ip), vehicle: saline 90 % of control | dose: 400.0 mg/kg/injection, schedule: Q01DX001 (ip), vehicle: saline 100 % of control

COc1ccc(-c2c(O)c3cccc(-c4ccccc4)c3oc2=O)cc1
inactive: [8] 116 % of control | [10] 96 % of control | [12] 101 % of control | [14] 95 % of control | [15] 93 % of control

N#CCC[CH2][Sn]([Br])([Br])[c]1ccccc1
inactive: dose: 3.12 mg/kg/injection, schedule: Q04DX003 (ip), vehicle: saline 91 % of control | dose: 6.25 mg/kg/injection, schedule: Q04DX003 (ip), vehicle: saline 96 % of control | dose: 12.5 mg/kg/injection, schedule: Q04DX003 (ip), vehicle: saline 91 % of control

O=C(Nc1ccc(CCO)cc1)c1ccc(F)cc1
inactive: [11] 102 % of control | dose: 200.0 mg/kg/injection, schedule: Q01DX009 (ip), vehicle: saline with Tween-80 93 % of control | dose: 400.0 mg/kg/injection, schedule: Q01DX009 (ip), vehicle: saline with Tween-80 93 % of control

CNC(=O)N(C)Cc1ccco1
inactive: [13] 91 % of control | [1] 102 % of control | [3] 101 % of control
